For 23 compounds, IC50 results are on record in US7001907B2, “Peptide-containing α-ketoamide cysteine and serine protease inhibitors” (Cephaon, Inc., priority 1997, dated 2006).

Where only a bound is given, the exact number is not on record here.

The assay concerns the target T1, Recombinant human calpain I (Homo sapiens, UniProt P07384).
T1 construct: made in house
T1 sequence (P07384 1-714): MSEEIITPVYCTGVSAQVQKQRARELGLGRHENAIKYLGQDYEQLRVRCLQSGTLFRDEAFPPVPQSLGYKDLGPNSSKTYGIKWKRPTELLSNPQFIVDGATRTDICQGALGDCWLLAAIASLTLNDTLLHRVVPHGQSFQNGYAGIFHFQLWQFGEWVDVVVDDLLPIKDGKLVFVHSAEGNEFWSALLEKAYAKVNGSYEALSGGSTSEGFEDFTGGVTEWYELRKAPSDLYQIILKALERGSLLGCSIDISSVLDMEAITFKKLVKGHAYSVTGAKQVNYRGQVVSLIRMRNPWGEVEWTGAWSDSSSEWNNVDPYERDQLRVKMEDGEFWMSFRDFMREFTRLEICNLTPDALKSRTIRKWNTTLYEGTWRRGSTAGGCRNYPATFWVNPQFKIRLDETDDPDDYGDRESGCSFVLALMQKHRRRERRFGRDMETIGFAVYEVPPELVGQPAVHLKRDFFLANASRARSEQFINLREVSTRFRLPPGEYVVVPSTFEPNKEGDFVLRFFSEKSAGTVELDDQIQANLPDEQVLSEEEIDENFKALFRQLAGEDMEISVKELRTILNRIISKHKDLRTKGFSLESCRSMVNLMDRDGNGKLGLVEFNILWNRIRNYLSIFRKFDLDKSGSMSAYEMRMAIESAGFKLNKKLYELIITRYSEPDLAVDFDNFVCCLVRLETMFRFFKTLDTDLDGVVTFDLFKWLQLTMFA
T1 sequence (P04632 1-268 partner): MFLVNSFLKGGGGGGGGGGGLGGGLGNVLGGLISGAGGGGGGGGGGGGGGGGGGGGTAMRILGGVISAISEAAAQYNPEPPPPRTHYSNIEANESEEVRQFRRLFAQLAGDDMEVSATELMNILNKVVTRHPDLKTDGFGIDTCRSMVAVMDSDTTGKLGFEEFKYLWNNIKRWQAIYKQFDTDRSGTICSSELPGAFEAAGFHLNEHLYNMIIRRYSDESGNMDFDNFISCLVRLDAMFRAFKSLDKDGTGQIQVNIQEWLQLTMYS
Briefly: Inhibition of cysteine protease activity: calpain I, Succ-Leu-Tyr-MNA substrate hydrolysis. It is filed as biochemical. As to conditions: Table 5, achiral P2 mimetic α-ketoamides. How it is done:
To evaluate inhibitory activity, stock solutions (40 times concentrated) of each compound to be tested were prepared in 100% anhydrous DMSO and 5 μl of each inhibitor preparation were aliquoted into each of three wells of a 96-well plate. Recombinant human calpain I, prepared by the method of Meyer et al. (Biochem. J. 1996, 314: 511–519; incorporated herein by reference in its entirety), was diluted into assay buffer (i.e., 50 mM Tris, 50 mM NaCl, 1 mM EDTA, 1 mM EGTA, and 5 mM β-mercaptoethanol, pH 7.5, including 0.2 mM Succ-Leu-Tyr-MNA), and 175 μl was aliquoted into the same wells containing the independent inhibitor stocks as well as to positive control wells containing 5 μl DMSO, but no compound. To start the reaction, 20 μl of 50 mM CaCl2 in assay buffer was added to all wells of the plate, excepting three, which were used as background signal baseline controls. Substrate hydrolysis was monitored every 5 minutes for a total of 30 minutes. Substrate hydrolysis in the absence of inhibitor was linear for up to 15 minutes.
Inhibition of calpain I activity was calculated as the percent decrease in the rate of substrate hydrolysis in the presence of inhibitor relative to the rate in its absence. Comparison between the inhibited and control rates was made within the linear range for substrate hydrolysis. The IC50s of inhibitors (concentration yielding 50% inhibition) were determined from the percent decrease in rates of substrate hydrolysis in the presence of five to seven different concentrations of the test compound. The results were plotted as percent inhibition versus log inhibitor concentration, and the IC50 was calculated by fitting the data to the four-parameter logistic equation shown below using the program GraphPad Prism (GraphPad Software, Inc., San Diego, Calif.). y=d+[(a−d)/(1+(x/c)^b)]
The parameters a, b, c, and d are defined as follows: a is % inhibition in the absence of inhibitor, b is the slope, c is the IC50, and d is the % inhibition at an infinite concentration of inhibitor.
In general, IC50 refers to the concentration that inhibits the measured activity by half. For `O=C(NCCNS(=O)(=O)c1ccc(-c2ccccn2)s1)C(=O)[C@H](Cc1ccccc1)NC(=O)c1ccccc1` [Compound 117], the IC50 came to 800 nM. As for `O=C(NCCNS(=O)(=O)c1ccc(-c2ccccn2)s1)C(=O)[C@H](Cc1ccccc1)NC(=O)c1c(Cl)cccc1Cl` [Compound 118], the figure is 36 nM; as for `Cc1ccc(Cl)c(C(=O)N[C@@H](Cc2ccccc2)C(=O)C(=O)NCCNS(=O)(=O)c2ccc(-c3ccccn3)s2)c1Cl` [Compound 119], 61 nM; as for `O=C(NCCNS(=O)(=O)c1ccc(-c2ccccn2)s1)C(=O)[C@H](Cc1ccccc1)NC(=O)c1c(F)cccc1F` [Compound 120], 20 nM. On to `O=C(NCCNS(=O)(=O)c1ccc(-c2ccccn2)s1)C(=O)[C@H](Cc1ccccc1)NC(=O)c1ccc2c(c1)OCO2` [Compound 123], for which the IC50 is above 1000 nM. As for `COc1ccc(Cl)c(C(=O)N[C@@H](Cc2ccccc2)C(=O)C(=O)NCCNS(=O)(=O)c2ccc(-c3ccccn3)s2)c1` [Compound 125], the figure is 65 nM; as for `O=C(NCCNS(=O)(=O)c1ccc(-c2ccccn2)s1)C(=O)[C@H](Cc1ccccc1)NC(=O)c1cc(C(F)(F)F)cc(C(F)(F)F)c1` [Compound 126], 600 nM; as for `Cc1cccc(C)c1C(=O)N[C@@H](Cc1ccccc1)C(=O)C(=O)NCCNS(=O)(=O)c1ccc(-c2ccccn2)s1` [Compound 127], 178 nM. Take `O=C(NCCNS(=O)(=O)c1ccc(-c2cccc(CN3CCOCC3)c2)s1)C(=O)[C@H](Cc1ccccc1)NC(=O)c1c(Cl)cccc1Cl` [Compound 131]: the IC50 was found to be 29 nM.

On to `N#Cc1cccc(-c2ccc(S(=O)(=O)NCCNC(=O)C(=O)[C@H](Cc3ccccc3)NC(=O)c3c(Cl)cccc3Cl)s2)c1` [Compound 133], for which the IC50 was 11 nM. As for `N#Cc1cccc(-c2ccc(S(=O)(=O)NCCNC(=O)C(=O)[C@H](Cc3ccccc3)NC(=O)c3c(F)cccc3F)s2)c1` [Compound 135], the figure is 22 nM; as for `O=C(NCCNS(=O)(=O)c1ccc(-c2ccon2)s1)C(=O)[C@H](Cc1ccccc1)NC(=O)c1c(F)cccc1F` [Compound 136], 62 nM; as for `CCc1cccc(CC)c1C(=O)N[C@@H](Cc1ccccc1)C(=O)C(=O)NCCNS(=O)(=O)c1ccc(-c2ccon2)s1` [Compound 137], 145 nM. As for `COc1cccc(OC)c1C(=O)N[C@@H](Cc1ccccc1)C(=O)C(=O)NCCNS(=O)(=O)c1ccc(-c2ccon2)s1` [Compound 138], the IC50 was determined as 4000 nM. As for `CC(C)c1ccccc1C(=O)N[C@@H](Cc1ccccc1)C(=O)C(=O)NCCNS(=O)(=O)c1ccc(-c2ccon2)s1` [Compound 139], the figure is 168 nM; as for `O=C(NCCNS(=O)(=O)c1ccc(-c2ccon2)s1)C(=O)[C@H](Cc1ccccc1)NC(=O)c1c(F)cccc1Cl` [Compound 140], 58 nM. Turning to `CC(C)C(=O)N[C@@H](Cc1ccccc1)C(=O)C(=O)NCCNS(=O)(=O)c1ccc(-c2ccccn2)s1` [Compound 143], the IC50 was 1500 nM. The figure for `CC(C)CC(=O)N[C@@H](Cc1ccccc1)C(=O)C(=O)NCCNS(=O)(=O)c1ccc(-c2ccccn2)s1` [Compound 144] is 590 nM. The figure for `CC(C)CCC(=O)N[C@@H](Cc1ccccc1)C(=O)C(=O)NCCNS(=O)(=O)c1ccc(-c2ccccn2)s1` [Compound 145] is 29 nM; for `CC(CCC(=O)N[C@@H](Cc1ccccc1)C(=O)C(=O)NCCNS(=O)(=O)c1ccc(-c2ccccn2)s1)c1ccccc1` (some centres unmarked) [Compound 148] it is 87 nM; for `O=C(CCCc1ccccc1)N[C@@H](Cc1ccccc1)C(=O)C(=O)NCCNS(=O)(=O)c1ccc(-c2ccccn2)s1` [Compound 149] it is 1500 nM. In the case of `CC(C)CCC(=O)N[C@@H](Cc1ccccc1)C(=O)C(=O)NCCNS(=O)(=O)c1ccc(-c2cccc(C#N)c2)s1` [Compound 150], the concentration for half-maximal inhibition (IC50) was found to be 15 nM. The figure for `N#Cc1cccc(-c2ccc(S(=O)(=O)NCCNC(=O)C(=O)[C@H](Cc3ccccc3)NC(=O)CCC3CCCC3)s2)c1` [Compound 151] is 420 nM.
